For this assay, the system named is P. falciparum 3D7 growth, pLDH absorbance. As to the kind of experiment: P. falciparum 3D7 growth inhibition, dose response, strain 3D7 (AID 2305).

As to `CC(=O)Nc1cccc(C(=O)Nc2cccc(-c3ccc(-c4nc5ccc(F)cc5[nH]4)cc3)c2)c1`, the IC50 is 760 nM.

Take `CN(c1ccccc1)S(=O)(=O)c1cccc(NC(=O)c2ccc(-n3ccnc3)c([N+](=O)[O-])c2)c1`: the concentration for half-maximal inhibition (IC50) is 1130 nM. The IC50 values of the last two compounds are within 1.5-fold of each other.

Consider `O=C(Nc1cccc(F)c1)N(Cc1ccc(-c2ccc(CN3CCNCC3)cc2)cc1)C1CCN(Cc2ccccc2)CC1`, for which the IC50 was 770 nM. The IC50 values of the last two compounds are within 1.5-fold of each other.

For `Cn1cc(CN2CCCC(COC(c3ccccc3)c3ccccc3)C2)cn1` (centres undefined), the IC50 is 770 nM.

Consider `CC(C)(CNC(=O)[C@H]1CCCCN1)c1nc(-c2ccc(Cl)c(O)c2)c(-c2ccncc2)[nH]1`, for which the IC50 was 730 nM.

On to `O=C(Nc1ccc(N2CCN(c3ncccc3C(F)(F)F)CC2)nc1)c1cccs1`, for which the IC50 stood at 1190 nM.

For `COc1ccc(CNc2nc(NCCc3ccccc3)c3cc(OC)c(OC)cc3n2)cc1OC`, the IC50 is 180 nM.

`O=C(/C=C/c1ccc(Cl)cc1Cl)NC1CCC(CN2CCC(c3c[nH]c4ccccc34)CC2)CC1` (centres undefined) came in with an IC50 of 800 nM.

For the compound `COc1ccc(OC)c(C(O)CNC(C)C)c1` (centres undefined), the IC50 is 60 nM.

The compound `Cc1cc(NC(=O)c2coc3cc(F)c(N4C[C@@H](C)N(C)[C@@H](C)C4)cc23)ccc1-n1ccnc1` registered an IC50 of 840 nM.

Compound `COc1ccc(Oc2cnc(N)nc2N)c(C(C)C)c1` registered an IC50 of 740 nM.

`CCNc1cc(C(=O)N[C@@H](Cc2ccccc2)[C@H](O)CNC(C)(C)c2cccc(OC)c2)cc(N2CCCC2=O)c1` displayed an IC50 of 140 nM.

`COc1ccc(C2CC(=O)C3=C(C2)NC(C)=C(C(=O)OC2CCCC2)C3c2cccc(O)c2)cc1OC` (centres undefined): the IC50 came to 220 nM.

Take `Cc1cc(C)cc(OCC(O)CN(Cc2cc(Cl)cc(Cl)c2)C(=O)Nc2ccc(Cl)cc2)c1` (centres undefined): the IC50 worked out at 810 nM.

As to `CC(=O)Nc1cccc(CNCc2ccc(-c3cnc(N4CCCC(C)(C)C4)nc3)cc2)c1`, the IC50 was 820 nM.

As for `Cc1ccc(S(=O)(=O)NC2CCN(c3ccnc4cc(Cl)ccc34)C2)cc1` (centres undefined), the IC50 was determined as 620 nM.

Turning to `CC(Cc1ccc(OCCCCOc2ccccc2)cc1)NCCc1ccc(Oc2ccccc2)cc1` (centres undefined), the IC50 stood at 810 nM.

With `O=C(/C=C/c1ccc(I)cc1)NCCCCCN1CCC(c2c[nH]c3ccccc23)CC1`, the half-inhibitory concentration (IC50) is 840 nM.

For `COc1cccc(OC2CCN(C(=O)c3cc(C(C)(C)C)nn3Cc3ccccc3)CC2)c1`, the IC50 worked out at 250 nM.

Take `CCCCN(CCCC)CCNC(=O)c1cc(OC(F)(F)F)ccc1O`: the IC50 turned out to be 920 nM.

`CCN(CC)CCCN(C(=O)Nc1ccc(C#N)cc1)c1nc(-c2ccc(F)cc2)cs1` yielded an IC50 of 650 nM.

For the compound `C=CCc1cc(Cc2cnc(N)nc2N)cc(CCC)c1OC`, the half-maximal inhibitory concentration (IC50) was 1360 nM. This IC50 lies about 2.1-fold higher than the previous one.

As to `COc1cccc(-c2csc(C(=O)NCC3CCN(Cc4ccc(C(C)(C)C)cc4)C3)c2)c1` (centres undefined), the IC50 is 1180 nM.

`CS(=O)(=O)c1ccc(CNCc2ccc(-c3cccc(-c4nc5ccc(C(F)(F)F)cc5[nH]4)c3)cc2)cc1` showed an IC50 of 140 nM.

In turn, `CCCC(CNC(=O)c1cc2c(Cl)cc(Cl)cc2[nH]1)CNc1cc(=O)c2ccccc2[nH]1` (centres undefined) yielded an IC50 of 900 nM.

Take `O=C(/C=C/c1ccccc1Cl)Nc1ccc(Br)c(OCCN2CCC(O)(c3ccccc3)CC2)c1`: the half-maximal inhibitory concentration (IC50) was 480 nM. This IC50 is about 1.9-fold lower than that of the compound before.

In the case of `Oc1cc(Nc2ccnc3cc(-c4cccc(CN5CCCCC5)c4)ccc23)c(F)cc1Cl`, the IC50 amounted to 100 nM.

Consider `COc1ccc(Cn2c(Nc3cccc(C(F)(F)F)c3)nc3ccc(C(=O)NCCN4CCCC4)cc32)cc1Cl`, for which the IC50 was found to be 750 nM.

The compound `Cc1cccc2[nH]c(-c3cccc(-c4ccc(NC(=O)Nc5ccc(Cl)cc5)cc4)c3)nc12` showed an IC50 of 200 nM.

`O=c1c2sc(-c3ccc(Cl)cc3)cc2ncn1Cc1ccc(OCCN2CCCC2)c2ccccc12` yielded an IC50 of 250 nM. The IC50 values of the last two compounds are within 1.5-fold of each other.

Take `CN1CCCc2ccc(NC(=O)c3ccc(-c4cc(C(F)(F)F)nn4C)s3)cc2C1`: the IC50 is 880 nM.

`Cc1cc(=O)[nH]c(/N=C(/N)NOCc2ccccc2)n1` had an IC50 of 420 nM. Compared with the last compound, the IC50 is about 2.1-fold lower.

For `CCOc1cc2ncnc(Nc3ccc(OCc4ccccc4OC)c(OC)c3)c2cc1OCC`, the IC50 came to 880 nM.

The compound `COc1ccc(N2C(N)=NC(N)=NC2(C)C)cc1` showed an IC50 of 110 nM.

The record behind these values is PubChem BioAssay AID2305 (GlaxoSmithKline (GSK), 2010).
